From patent publication US20090117607A1, “Methods For Differential Detection Of Hypoxic Tissue From A Tissue Sample Of A Mammalian Subject” (priority 2007, published 2009)
Values joined by “and” are separate entries in the source; they are usually repeats but may differ in a detail not shown here. Equal values may be shown once. Read-outs that look alike come from different tables or passages of the source.

What was measured:
[1] = test system: head and neck squamous cell carcinoma (HNSCC) tumor tissue; test: Quantitative fluorescence immunohistochemical analysis of EF5 binding in HNSCC tumor sections of patients; assay type: in vivo, human; parameters: key to Maximum CF95 Mean: % of CRB (maximal EF3 binding), scale 0-100%
Method: EF5 Administration. The National Cancer Institute, Division of Cancer Treatment supplied EF5 in 100 mL vials containing an aqueous solution of 3 mg/mL EF5 also containing 5% dextrose and 2.4% ethanol. This EF5 solution was administered through a peripheral IV catheter, 24-48 hours before surgery at a rate no greater than 350 mL/hr and to a total dose of 9-21 mg/kg. Blood samples for drug levels were obtained before and 1 hour after the completion of drug administration, and at the time of surgery. Calculation of drug time/dose concentration (area under the curve, AUC) allowed the absolute EF5 tissue binding level to be corrected for variations in drug dose and exposure time between patients. Koch, et al., Cancer Chemother. Pharmacol., 2001, 48, 177-187.
Tissue Acquisition and processing for EF5 Binding. 24-48 hours after completion of drug administration, tumors were resected or biopsied and placed in sterile, iced EXCELL 610 medium (JRH Biosciences, Lenexa, Kans.). In collaboration with the pathologist, tissue samples deemed unnecessary for clinical diagnosis were taken to the lab for processing and analysis.
IHC staining methods and quantitative fluorescence microscopy of EF5 in in situ tumor sections and EF3 in tissue cubes for cube reference binding (CRB) were performed as reported previously. Evans, et al., Cancer Res., 2004, 64, 1886-1892. CRB determination is an in vitro technique where tissue cubes are incubated in 200 μM EF3, a sister drug of EF5, under controlled hypoxic conditions for 3 hours. The goal of this procedure was to determine the maximum level of EF3 binding possible for each patient's tumor. This technique allowed normalization of the in situ EF5 binding to each tumor's maximum binding value after correction for the AUC. Koch, et al., Cancer Chemother. Pharmacol., 2001, 48, 177-187. These values were used to calculate the maximum and average ‘% CRB’ value for each tumor, as described previously and briefly below. Evans, et al., Cancer Res., 2000, 60, 2018-2024. Thus, EF5 binding values for each tumor tissue are reported on a scale of 0-100% allowing for comparisons within and between tumors.
Quantitative Image analysis. The quantitative analysis of tumor sections stained for EF3/EF5 has been previously described. Evans, J. Invest. Derm., 2006; Evans, et al., Int. J. Radiat. Oncol., Biol., Phys., 2001, 49, 587-596; Busch, et al., Adv Exp Med. Biol., 2003, 510, 37-43. Briefly, tissue sections were counterstained with Hoechst 33342 to identify the location of intact nuclei. These images were used to create bitmaps in order to generate binary masks of viable tissue regions. Masked regions of each section were analyzed for EF5-dependent immunofluorescence intensity using routines written in MatLab (The MathWorks, Inc., Natick, Mass.). EF5 intensity values of these regions were corrected for tissue section thickness, camera exposure time, relative lamp intensity, EF5 drug exposure (AUC) and CRB. Evans, et al., Cancer Res., 2000, 60, 2018-2024; Evans, et al., Int. J. Radiat. Oncol., Biol., Phys., 2001, 49, 587-596; Evans, et al, Clin. Cancer Res., 2004, 10, 8177-8184; Koch, et al., Cancer Chemother. Pharmacol., 2001, 48, 177-187. Data were then summarized by generating histograms of all positive pixels in the masked image, which were then converted into a cumulative frequency plot. The number of pixels at or below a given binding level can be identified from this plot. For example, CF95=20% would mean that 95% of the EF5 values in the image were at or below 20% of CRB. Terms to describe tissue oxygenation based on EF5 studies have been approximated by data from in vitro studies (Table 1). Koch, Method Enzymol., 2002, 352, 3-31. Normoxic conditions correspond to a CF95≈1%; for modestly/mildly hypoxic conditions, CF95≈3%; for moderately hypoxic conditions, CF95≈10%; for severely hypoxic conditions, CF95≈30%, and for anoxia, the CF95100%. The pO2 corresponding to these descriptive terms is found in Table 1. […]

[2] = EF5-related toxicity in patients after IV EF5 administration; assay type: in vivo, human; settings: 22 HNSCC patients
Description: Human Subjects. The Institutional Review Board of the University of Pennsylvania Clinical Trials and Scientific Monitoring Committee at the University of Pennsylvania Abramson Cancer Center and the Cancer Therapeutics Evaluation Program of the National Cancer Institute approved this prospective trial of EF5. All patients signed an approved consent form for both the study and for privacy (HIPPA). Patients of all ethnic and gender groups were included. Eligible patients were those undergoing resection or biopsy of a HNSCC as clinically indicated. Exclusion criteria included patients with a history of grade III or IV peripheral neuropathy, pregnant or nursing patients and patients <18 years old. Coleman, et al., Int. J. Radiat. Oncol., Biol., Phys., 1990, 18, 389-393. EF5 Administration. The National Cancer Institute, Division of Cancer Treatment supplied EF5 in 100 mL vials containing an aqueous solution of 3 mg/mL EF5 also containing 5% dextrose and 2.4% ethanol. This EF5 solution was administered through a peripheral IV catheter, 24-48 hours before surgery at a rate no greater than 350 mL/hr and to a total dose of 9-21 mg/kg. Blood samples for drug levels were obtained before and 1 hour after the completion of drug administration, and at the time of surgery. […]

[3] = test system: hypoxic cells; settings: cited from earlier work
[4] = test system: HNSCC; settings: meta-analysis of trials; cited from earlier work
[5] = test system: HNSCC hypoxic tumors; settings: 45 HNSCC patients, adjuvant cisplatin with tirapazamine; cited from earlier work

Q: Which results are given for `O=C(Cn1ccnc1[N+](=O)[O-])NCC(F)(F)C(F)(F)F` [EF5]?
A: Maximum CF95 Mean ([1]; Age <60 y (11)): 25.66; Maximum CF95 Mean ([1]; Age ≧60 y (11)): 21.11; Maximum CF95 Mean ([1]; All patients (22)): 23.38; Maximum CF95 Mean ([1]; Differentiation: Moderate (10)): 20.00; Maximum CF95 Mean ([1]; Differentiation: Moderate to poor, poor (7)): 35.87; Maximum CF95 Mean ([1]; Differentiation: Well, well to moderate (5)): 12.65; Maximum CF95 Mean ([1]; Gender: Men (18)): 26.74; Maximum CF95 Mean ([1]; Gender: Women (4)): 8.27; Maximum CF95 Mean ([1]; Nodal stage N0-N1 (15)): 17.96; Maximum CF95 Mean ([1]; Nodal stage N2-N3 (7)): 35.00; EF5 binding average CF95 ([1]; individual patient tumor, average of all tissue sections, biopsy 24-48 h after EF5 IV 9-21 mg/kg): 0.8 % CRB and 0.9 % CRB and 1.9 % CRB and 1.1 % CRB and 4.2 % CRB and 5.6 % CRB and 6.2 % CRB and 6.1 % CRB and 6.4 % CRB and 10.8 % CRB and 16.0 % CRB and 19.6 % CRB and 18.7 % CRB and 12.5 % CRB and 26.0 % CRB and 14.2 % CRB and 23.0 % CRB and 36.9 % CRB and 38.5 % CRB and 34.5 % CRB and 0.4 % CRB and 1.3 % CRB; EF5 binding maximum CF95 ([1]; individual patient tumor, brightest binding of all tissue sections, biopsy 24-48 h after EF5 IV 9-21 mg/kg): 1.4 % CRB (2×) and 2.8 % CRB and 6.0 % CRB and 7.9 % CRB and 8.2 % CRB and 8.9 % CRB and 10.0 % CRB and 16.4 % CRB and 17.8 % CRB and 19.4 % CRB and 23.1 % CRB and 25.4 % CRB and 30.7 % CRB and 35.8 % CRB and 36.0 % CRB and 61.7 % CRB and 66.0 % CRB and 66.5 % CRB and 66.6 % CRB and 1.2 % CRB and 1.3 % CRB; EF5-related grade 1 and 2 toxicity [2]: One patient each experienced EF5-related grade 1 and 2 toxicity; EF5-related grade 3 or 4 toxicity ([2]; 30 days following EF5 administration): no episodes of EF5-related grade 3 or 4 toxicity; Maximum EF5 binding (%) ([3]; Anoxia, pO2 0%): 100%; Maximum EF5 binding (%) ([3]; Moderate hypoxia, pO2 0.5% (3.8 mm Hg)): 10%; Maximum EF5 binding (%) ([3]; Modest (mild) hypoxia, pO2 2.5% (19 mm Hg)): 3%; Maximum EF5 binding (%) ([3]; Normoxia, pO2 10% (76 mm Hg)): 1%; Maximum EF5 binding (%) ([3]; Severe hypoxia, pO2 0.1% (0.76 mm Hg)): 30%

Q: For `COCC(O)Cn1ccnc1[N+](=O)[O-]` (stereo not drawn) [misonidazole], which “Effectiveness as hypoxic cell sensitizer” value [4] is on record?
A: Its value is “could be identified in a subset of patients”.

Q: Which “Outcome (local-regional failure) of patients with hypoxic tumors” value [5] does the source give for `Nc1n[n+]([O-])c2ccccc2[n+]1[O-]` [tirapazamine] here?
A: Its value is “did as well as those with oxic tumors”.
